Consider one substance from patent US10800790B2, “Sesquiterpenoid STAT3 inhibitors” (University of Hawaii, priority 2013, dated 2020).

Experiment [1] relates to GSH levels in U251 MG cells. Put plainly: Glutathione (GSH) levels in U251 MG cells.
Procedure: Reduced glutathione (GSH) and oxidized glutathione disulfide (GSSG) levels were assayed using a commercially available kit (Cayman Chemical, Ann Arbor, Mich.) and following the manufacturer's instructions.
Experiment [2] deals with STAT3 DNA-binding activity. Put plainly: STAT3 DNA-binding activity (EMSA) of nuclear extracts from treated tumor cells. As to conditions: 5 micromolar, time course. (In general: A gel shift assay detects complexes by their altered migration in electrophoresis.)
Procedure: Positions of STATs:DNA complexes or proteins in gel are labeled; control lanes (0) represent nuclear extracts or whole-cell lysates prepared from 0.05% DMSO-treated cells.
Nuclear extract preparations and DNA-binding/electrophoretic mobility shift assay (EMSA) were carried out as previously described (Xu, supra). Nuclear extract preparations and DNA-binding activity/electrophoretic mobility shift assay (EMSA) were carried out as previously described. U251 MG and MDA-MB-231 cells culture were pretreated with different concentrations of the compounds for the indicated period and then harvested for nuclear extract preparation and DNA-binding assay with EMSA analysis. […] Except where indicated, nuclear extracts were pre-incubated with compound for 30 min at room temperature prior to incubation with the radiolabeled probe for 30 min at 30° C. before subjecting to EMSA analysis.
The next experiment has as its system U251 MG cells. Put plainly: iTRAQ proteomics with immunoblot validation, U251 MG cells. Format: cell-based, human. The protocol: To investigate the possibility that the hirsutinolides could induce global molecular changes in the sensitive malignant cells, lysates were prepared from U251 MG cells untreated or treated with 6 or 22 for 1 h and analyzed by isobaric peptide labeling and nanoLC-MS/MS analysis (iTRAQ) proteomics method (Ross, P. L., et al., Multiplexed protein quantitation in Saccharomyces cerevisiae using amine-reactive isobaric tagging reagents, Mol Cell Proteomics., 2004. 3: p. 1154-69), as described in the Examples section. A search was pursed of the 341,908 mass spectrometry spectra using ProteinPilot (version 4.5; Applied Biosystems) against the National Center for Biotechnology Information non-redundant reference sequence (NCBInr) human database and based on the criteria of choosing only proteins with at least 95% confidence and with a “Local False Discovery Rate” no higher than 5%, as calculated from the slope of the accumulated Decoy database hits by the PSPEP estimation. […]
Cellular samples were prepared according to the Pennsylvania STATe University College of Medicine Mass Spectrometry and Proteomics Core (MSPC) facility (Hershey, Pa.) standard protocol, adapted from the manufacturer's instructions (Applied Biosystems Sciex, Foster City, Calif.), combined with filter-aided sample preparation, as previously reported. […] For iTRAQ analysis (Ross, P. L., et al., Multiplexed protein quantitation in Saccharomyces cerevisiae using amine-reactive isobaric tagging reagents, Mol Cell Proteomics., 2004, 3: p. 1154-69), one hundred micrograms of whole-cell lysates from U251 MG cells untreated (DMSO control) or treated with 5 micromolar of compounds 22 or 6 for 1 h were independently digested, and their corresponding cellular proteins were differently labeled with 114, 115 or 117 tags, respectively, using iTRAQ reagents. […] Protein identification and quantification for iTRAQ samples were carried out using ProteinPilot™ software (version 4.5; Applied Biosystems, MDS-Sciex, Framingham, Mass.). […]
Background: In western blotting, separated proteins are transferred to a membrane and probed.

The test system of a further experiment is pSTAT5. Put plainly: Immunoblotting of EGF-induced pSTAT5 in NIH3T3/hEGFR. As to conditions: 5 micromolar.
The subject of experiment [3] is normal NIH3T3 mouse fibroblasts. Put plainly: CyQuant cell viability/proliferation assay, NIH3T3. The experiment is classed as cell-based. Also on record: key to Activity against 3T3: +, active; −, no activity; +/−, poorly active. The note with it: Table 1 grade; Table 1/FIG. 2 compound numbering. The protocol: (§1) The cell viability assay was performed as previously reported (Zhang X, et al. (2010)). Briefly, a 10 millimolar concentration stock solution in dimethylsulfoxide (DMSO) of the tested molecule was first prepared. Next, the stock solution was diluted down to various working solutions in water. Thus, a formulation of the tested compound in a DMSO/water mixture was used to test for cell viability. (A novel small-molecule disrupts STAT3 SH2 domainphosphotyrosine interactions and STAT3-dependent tumor processes, Biochem Pharmacol 79:1398-1409; Zhao W, Jaganathan S, & Turkson J (2010), A cell-permeable STAT3 SH2 domain mimetic inhibits STAT3 activation and induces antitumor cell effects in vitro. J Biol Chem. 285:35855-35865). Cells (U251MG, MDA-MB-231 or NIH3T3) were obtained from ATCC (Manassas, Va.) and were cultured in 96-well plates at 2,000 cells per well for 24 h and were treated with compounds (5 micromolar concentration) for 72 h. Cell viabilty was determined using CyQuant assay, according to the manufacturer's (Invitrogen, CA, USA) instructions. Relative viability of the treated cells was normalized to the DMSO-treated control cells.

Experiment [4] deals with MDA-MB-231 breast cancer cells. Put plainly: CyQuant cell viability/proliferation assay, MDA-MB-231. The experiment is classed as cell-based, human. As to conditions: Table 1 grade; Table 1/FIG. 2 compound numbering. Also on record: key to Activity against 231: +, active; −, no activity; +/−, poorly active. The protocol:
as §1

Procedure for pSTAT5: To determine the specificity of agents, mouse fibroblasts over-expressing the human EGF receptor (NIH3T3/hEGFR) were treated with the compounds and stimulated with EGF.
(A-C) SDS-PAGE and Western blotting analysis of whole-cell lysates of equal total protein prepared from (A) EGF-stimulated NIH3T3/hEGFR cells pre-treated with the 5 micromolar of the designated agents for 24 h and probing for pY705STAT3, STAT3, pY701 STAT1, STAT1, pY694STAT5, STAT5 or GAPDH, or the human glioma, U251MG cells treated with 5 micromolar of the designated inhibitors for (B) 0-32 h and probing for pS-Akt, Akt, pErk1/2, Erk1/2, pJAK2, JAK2, SOCS3, PTP1B, pSTAT3, STAT3, β-actin or GAPDH; or (C) 3 h in the absence or presence of increasing concentration of Na3VO4 and probing for pSTAT3, STAT3 or GAPDH/.

Turning to “(4S,6R,E)-4,7-dihydroxy-6,10-dimethyl-2-oxo-2,4,5,6,7,8,9,10-octahydro-7,10-epoxycyclodeca[b]furan-3-yl)methyl(E)-2-methylbut-2-enoate [Compound 22]”, the “Effect on GSH levels” value in experiment [1] is reported as “did not repress GSH levels”. Also, in experiment [2], the “Inhibition of STAT3 DNA-binding activity in treated cells (EMSA)” value was “early inhibition at 15-30 min”. For the same substance, the “Expression of GCN1 (immunoblot)” value with U251 MG cells (U251MG) is “reduced expression”. Also, in the experiment on U251 MG cells (iTRAQ, 5 micromolar, 1 h), the “Importin subunit α-2 up” value is 2 fold and the MAP1B down is given as ~2 fold. In addition, the “Effect on EGF-induced pSTAT5” value in the experiment with pSTAT5 was “no effects”. Besides, the “Activity against 3T3” value in experiment [3] is “+/−”. The “Activity against 231” value in experiment [4] is recorded as “+”.
